“Also recorded” adds a separate entry of the source.
What was measured:
[1] = system: PBMCs from HIV-1-infected HLA-C*14:02+ or HLA-C*14:03+ individuals; assay: ex vivo IFN-γ ELISPOT assay; type: cell-based, human; details: 1 μM peptide; for HLA-C*14 subtype of the individuals in whom responses were detected: initial screening, 10 HLA-C*14:02+ and 10 HLA-C*14:03+ individuals
Excerpt: To clarify whether these HLA-C*14:02- and C*14:03-binding HIV-1 peptides were T cell epitopes, we investigated T cell responses to these peptides in HIV-1-infected individuals. We assessed T cell targeting of 14 putative HIV-1 epitope sites by testing responses to the 14 NL4-3 sequence-based peptides and 9 variant peptides in 10 HLA-C*14:02^+ and 10 HLA-C*14:03^+ treatment-naive individuals living with HIV-1 subtype B using ex vivo gamma interferon (IFN-γ) ELISPOT assays. To identify HLA-C*14-restricted immunodominant epitopes, we investigated whether these peptides were recognized by virus-specific T cells in 20 individuals enabling detection of epitopes typically targeted in >5% of HLA-C*14^+ individuals. […] T cell responses to variant versions of the Gag LY9, Pol KM9, and Nef IF8 peptides were detected in a number of individuals similar to the number with responses to their NL4-3 sequence-based counterparts (Fig. 3A).
FIG 3 T cell responses to HLA-C*14:02- and/or HLA-C*14:03-binding HIV-1 peptides. (A) T cell responses to HLA-C*14:02/03-binding peptides in 20 chronically HIV-1-infected Japanese individuals with HLA-C*14:02 or HLA-C*14:03. T cell targeting of 14 putative epitopes was analyzed by testing responses to 14 NL4-3 sequence-based peptides and 9 peptides that were sequence variants thereof in ex vivo IFN-γ ELISPOT assays (peptides tested at a concentration of 1 μM). A positive response was defined as >100 spots/10^6 PBMCs (indicated by the horizontal dotted line). (B) Correlation between peptide binding to HLA-C*14:02 or HLA-C*14:03 and the frequency of responders to these peptides in HLA-C*14:02^+ (blue) and HLA-C*14:03^+ (red) individuals for NL4-3 sequence-based versions of the peptides only (left) or both NL4-3 sequence-based and variant peptides (right). Statistical analyses were performed using Pearson's correlation test.
PBMCs were separated from whole blood and stored at −80°C. ELISPOT assays were performed as previously described ([13]). Briefly, 1 × 10^5 PBMCs from HIV-1-infected individuals and a 1 μM concentration of each HLA-C*14:02- and -C*14:03-eluted HIV-1 peptide were added to 96-well polyvinylidene plates (Millipore) that had been coated overnight with 5 μg/mL anti-IFN-γ MAb 1-D1K (Mabtech). The plates were incubated for 16 h at 37°C in 5% CO2, and then the cells were stained as previously described in detail ([13]). The spots were counted with an Eliphoto-Counter instrument (Minerva Teck). The number of spots was calculated per 10^6 PBMCs; 100 spots/10^6 PBMCs was defined as a positive response, as described previously ([13]).

HLA-C*14:02 = HLA-C*14:02 (Homo sapiens, UniProt P10321, A176E/A330V/A35S/A97T/C350S/D114A/D33S/L171W/L180R/L218V/M285V/M309V/M331V/P208H/Q277E/Q291P/R121W/R243W/S123F/S297R/S48A/T329A/T363A/V319A); assay: LC-MS/MS identification of HLA-bound HIV-1 peptides from NL4-3-infected .221-C1402 cells; type: binding; design: key: ●: Closed circles indicate the peptide which was identified in HLA-C*1402 or/and -C*1403 expressing cells; details: HIV-1 NL4-3-infected .221-C1402 cells, W6/32 immunoprecipitation, two independent replicate experiments
Protocol: (§1) 721.221 cells expressing CD4 and HLA-C*14:02 (.221-C1402) or HLA-C*14:03 (.221-C1403) were infected with the laboratory-adapted NL4-3 HIV-1 strain. HLA-peptide complexes were isolated from cell lysates by immunoprecipitation with the anti-HLA class I antibody W6/32; then, peptides were eluted, fractionated by high-performance liquid chromatography (HPLC), and finally analyzed by LC-MS/MS. Two independent replicate experiments were performed, in which a total of 7,970 and 8,447 unique 8- to 13-mer peptide sequences were identified from .221-C1402 and .221-C1403 cells, respectively (Fig. 1A). Of these peptides, 6,163 were identified in both the C*14:02- and C*14:03-bound peptide data sets, while other peptides were detected in the acid-eluted fraction from only a single allele. […] These motifs are consistent with the HLA-C*1402/03 peptide motifs previously estimated using reported epitopes ([29]).
(§2) .221-C1402 and .221-C1403 cells were infected with HIV-1 NL4-3 in a low volume of RPMI 1640 medium (Thermo Fisher) containing 10% fetal bovine serum (FBS), 2 mM L-glutamine, 100 U/mL penicillin, 100 μg/mL streptomycin, and 10 mM HEPES (R10). Fifty microliters of NL4-3 stock virus (Reverse transcriptase activity (RT) value = 4 × 10^2 ng/mL) was added to 8 × 10^6 .221-C1402 cells or .221-C1403, and the cells were then incubated for 1.5 h at 37°C, after which 20 mL of R10 was added and the cells were cultured overnight. At day 1 postinfection, a further 20 mL R10 was added, and cells were split (1:2) on day 2. On day 3 postinfection, the proportion of cells infected with HIV-1 was determined by intracellular p24 staining, as previously described ([46]). Infected flasks were then harvested for immunoprecipitation of HLA-peptide complexes.
(§3) .221-C1402 cells or .221-C1403 cells infected with NL4-3 (1.5 × 10^8 to 2 × 10^8 cells) were harvested, washed in phosphate-buffered saline (PBS), and lysed in 5 mL of lysis buffer (1% IGEPAL 630, 300 mM NaCl, 100 mM Tris [pH 8.0], plus protease inhibitors) at 4°C for 45 min. Two centrifugation steps (2,000 × g for 10 min followed by 20,000 × g for 30 min at 4°C) were next employed to clear the lysates of cell debris prior to overnight capture of HLA-peptide complexes on W6/32-coated protein A‐Sepharose beads. W6/32-bound HLA-peptide complexes were sequentially washed with 10 to 20 mL of wash buffer 1 (0.005% IGEPAL, 50 mM Tris [pH 8.0], 150 mM NaCl, 5 mM EDTA), wash buffer 2 (50 mM Tris [pH 8.0], 150 mM NaCl), wash buffer 3 (50 mM Tris [pH 8.0], 400 mM NaCl), and finally wash buffer 4 (50 mM Tris [pH 8.0]) under gravity flow in Econo-Column glass chromatography columns (Bio-Rad). Peptide-HLA complexes were eluted from the beads with 5 mL of 10% acetic acid and, after drying under vacuum, were loaded onto a 4.6- by 50-mm ProSwift RP-1S column (Thermo Fisher Scientific) and eluted from an Ultimate 3000 HPLC system (Thermo Scientific) using a 500-μL/min flow rate over 10 min from 2% to 34% buffer B (0.1% trifluoroacetic acid [TFA] in acetonitrile) in buffer A (0.1% TFA in water). Alternate fractions were pooled to give two final peptide fractions that were dried for LC-MS/MS analysis.
(§4) Each HPLC-eluted sample was resuspended in 20 μL loading buffer, and 9 μL of it was injected onto a 3-μm-particle-size 0.075-mm by 150-mm Acclaim PepMap RSLC C18 column and further loaded onto a 2-μm-particle-size, 75-μm by 50-cm Acclaim PepMap RSLC C18 column using an Ultimate 3000 nUPLC system (Thermo Scientific). A linear gradient of 3 to 25% buffer B (0.1% formic acid, 5% dimethyl sulfoxide [DMSO] in acetonitrile) in buffer A (0.1% formic acid, 5% DMSO in water) was applied over 1 h to elute peptides from the column (flow rate of […]). Peptides were introduced, using an Easy-Spray source at 2,000 V at 40°C, into a Fusion Lumos mass spectrometer (Thermo Scientific). The ion transfer tube temperature was set to 305°C. […]

HLA-C*14:03 = HLA-C*14:03 (Homo sapiens, UniProt P10321, A176E/A330V/A35S/A97T/C350S/D114A/D33S/L171W/L180R/L218V/M285V/M309V/M331V/P208H/Q277E/Q291P/R121W/R243W/R45H/S123F/S297R/S48A/T329A/T363A/V319A); assay: LC-MS/MS identification of HLA-bound HIV-1 peptides from NL4-3-infected .221-C1403 cells; type: binding; design: key: ●: Closed circles indicate the peptide which was identified in HLA-C*1402 or/and -C*1403 expressing cells; details: HIV-1 NL4-3-infected .221-C1403 cells, W6/32 immunoprecipitation, two independent replicate experiments
Protocol: as §1, §2, §3, §4

[2] = 10 HLA-C*14:02+ and 10 HLA-C*14:03+ treatment-naive individuals, positive >100 spots/10^6 PBMCs

| Sequence | T cell responses to peptide detected [1, 2] | C1402: peptide identified by LC-MS/MS in HLA-I eluate (HLA-C*14:02) | C1403: peptide identified by LC-MS/MS in HLA-I eluate (HLA-C*14:03) | other results |
| --- | --- | --- | --- | --- |
| AFHHMAREK [Nef AL9-5M9K, variant of Nef AL9, …, present in Japanese cohort viruses] | not detected in any of the 20 individuals |  |  |  |
| AFPQGKAREF [Pol AF10, HIV-1 NL4-3 Pol 7–16 peptide […], eluted only, not synthesized] |  | ● | ● |  |
| AFVTIGKIGNM [Env AM11, HIV-1 NL4-3 Env 316–326 peptide […], eluted only, not synthesized] |  |  | ● |  |
| FHHVAREL [Nef FL8, HIV-1 NL4-3 Nef 191–198 peptide FHHVAREL] |  | ● | ● |  |
| FYVDGAANRET [Pol FT11, HIV-1 NL4-3 Pol 595–605 peptide […]] |  |  | ● |  |
| IYHTQGYFP [Nef IP9, HIV-1 NL4-3 Nef 114–122 peptide …] |  | ● | ● |  |
| KYHNNWRAM [Pol KM9-4N, variant of Pol KM9, …, present in Japanese cohort viruses] | detected in one or more individuals |  |  | HLA-C*14 subtype of the individuals in whom responses were detected [1]: detected in only HLA-C*14:02^+ or HLA-C*14:03^+ individuals |
| LFNTVAVL [Gag LL8-2F5V, variant of Gag LL8, LFNTVAVL, present in Japanese cohort viruses] | detected in one or more individuals; also recorded: weak response |  |  | number of individuals with T cell response, of 20 tested [1, 2]: one; HLA-C*14 subtype of the individuals in whom responses were detected [1]: detected in only HLA-C*14:02^+ or HLA-C*14:03^+ individuals |
| LFNTVAVLY [Gag LY9-2F5V, variant of Gag LY9, …, present in Japanese cohort viruses] | detected in one or more individuals |  |  |  |
| LYNTIAVL [Gag LL8, HIV-1 NL4-3 Gag 78–85 peptide LYNTIAVL eluted from HLA-C*14-expressing cells] | No T cell recognition; also recorded: no strong T cell responses | ● | ● |  |
| PQGKAREF [Pol PF8, HIV-1 NL4-3 Pol 9–16 peptide PQGKAREF, eluted only, not synthesized] |  |  | ● |  |
| SFNISTSI [Env SI8, HIV-1 NL4-3 Env 158–165 peptide SFNISTSI, eluted only, not synthesized] |  |  | ● |  |
| VTIGKIGNM [Env VM9, HIV-1 NL4-3 Env 318–326 peptide …, eluted only, not synthesized] |  | ● |  |  |
| VWGRDNNSL [Pol VWL9, HIV-1 NL4-3 Pol 33–41 peptide …, eluted only, not synthesized] |  | ● | ● |  |
| VYHTQGYF [Nef IF8-1V, variant of Nef IF8, VYHTQGYF, present in Japanese cohort viruses] | detected in one or more individuals |  |  |  |
| VYLAWVPAH [Pol VH9, HIV-1 NL4-3 Pol 686–694 peptide …] |  |  | ● |  |
| VYYDPSKDLIA [Pol VA11, HIV-1 NL4-3 Pol 472–482 peptide […]] |  |  | ● |  |
| YTSLIHSLI [Env YI9, HIV-1 NL4-3 Env 638–646 peptide …, eluted only, not synthesized] |  | ● |  |  |
